# Patent US8410112B2, “Compounds useful as inhibitors of ATR kinase” (Vertex Pharmaceuticals Incorporated, priority 2008, dated 2013)
# Columns and labels:
# intracellular ATR = biological target: T1, intracellular ATR (Homo sapiens, UniProt Q13535); assay: Cellular ATR Inhibition Assay (H2AX phosphorylation, immunofluorescence microscopy); assay type: cell-based; settings: HT29 cells, 2 mM hydroxyurea, percentage of phosphorylated H2AX Ser139-positive nuclei
# T1 construct: endogenous in cells; host or cells: HT29
# T1 sequence (Q13535 whole entry): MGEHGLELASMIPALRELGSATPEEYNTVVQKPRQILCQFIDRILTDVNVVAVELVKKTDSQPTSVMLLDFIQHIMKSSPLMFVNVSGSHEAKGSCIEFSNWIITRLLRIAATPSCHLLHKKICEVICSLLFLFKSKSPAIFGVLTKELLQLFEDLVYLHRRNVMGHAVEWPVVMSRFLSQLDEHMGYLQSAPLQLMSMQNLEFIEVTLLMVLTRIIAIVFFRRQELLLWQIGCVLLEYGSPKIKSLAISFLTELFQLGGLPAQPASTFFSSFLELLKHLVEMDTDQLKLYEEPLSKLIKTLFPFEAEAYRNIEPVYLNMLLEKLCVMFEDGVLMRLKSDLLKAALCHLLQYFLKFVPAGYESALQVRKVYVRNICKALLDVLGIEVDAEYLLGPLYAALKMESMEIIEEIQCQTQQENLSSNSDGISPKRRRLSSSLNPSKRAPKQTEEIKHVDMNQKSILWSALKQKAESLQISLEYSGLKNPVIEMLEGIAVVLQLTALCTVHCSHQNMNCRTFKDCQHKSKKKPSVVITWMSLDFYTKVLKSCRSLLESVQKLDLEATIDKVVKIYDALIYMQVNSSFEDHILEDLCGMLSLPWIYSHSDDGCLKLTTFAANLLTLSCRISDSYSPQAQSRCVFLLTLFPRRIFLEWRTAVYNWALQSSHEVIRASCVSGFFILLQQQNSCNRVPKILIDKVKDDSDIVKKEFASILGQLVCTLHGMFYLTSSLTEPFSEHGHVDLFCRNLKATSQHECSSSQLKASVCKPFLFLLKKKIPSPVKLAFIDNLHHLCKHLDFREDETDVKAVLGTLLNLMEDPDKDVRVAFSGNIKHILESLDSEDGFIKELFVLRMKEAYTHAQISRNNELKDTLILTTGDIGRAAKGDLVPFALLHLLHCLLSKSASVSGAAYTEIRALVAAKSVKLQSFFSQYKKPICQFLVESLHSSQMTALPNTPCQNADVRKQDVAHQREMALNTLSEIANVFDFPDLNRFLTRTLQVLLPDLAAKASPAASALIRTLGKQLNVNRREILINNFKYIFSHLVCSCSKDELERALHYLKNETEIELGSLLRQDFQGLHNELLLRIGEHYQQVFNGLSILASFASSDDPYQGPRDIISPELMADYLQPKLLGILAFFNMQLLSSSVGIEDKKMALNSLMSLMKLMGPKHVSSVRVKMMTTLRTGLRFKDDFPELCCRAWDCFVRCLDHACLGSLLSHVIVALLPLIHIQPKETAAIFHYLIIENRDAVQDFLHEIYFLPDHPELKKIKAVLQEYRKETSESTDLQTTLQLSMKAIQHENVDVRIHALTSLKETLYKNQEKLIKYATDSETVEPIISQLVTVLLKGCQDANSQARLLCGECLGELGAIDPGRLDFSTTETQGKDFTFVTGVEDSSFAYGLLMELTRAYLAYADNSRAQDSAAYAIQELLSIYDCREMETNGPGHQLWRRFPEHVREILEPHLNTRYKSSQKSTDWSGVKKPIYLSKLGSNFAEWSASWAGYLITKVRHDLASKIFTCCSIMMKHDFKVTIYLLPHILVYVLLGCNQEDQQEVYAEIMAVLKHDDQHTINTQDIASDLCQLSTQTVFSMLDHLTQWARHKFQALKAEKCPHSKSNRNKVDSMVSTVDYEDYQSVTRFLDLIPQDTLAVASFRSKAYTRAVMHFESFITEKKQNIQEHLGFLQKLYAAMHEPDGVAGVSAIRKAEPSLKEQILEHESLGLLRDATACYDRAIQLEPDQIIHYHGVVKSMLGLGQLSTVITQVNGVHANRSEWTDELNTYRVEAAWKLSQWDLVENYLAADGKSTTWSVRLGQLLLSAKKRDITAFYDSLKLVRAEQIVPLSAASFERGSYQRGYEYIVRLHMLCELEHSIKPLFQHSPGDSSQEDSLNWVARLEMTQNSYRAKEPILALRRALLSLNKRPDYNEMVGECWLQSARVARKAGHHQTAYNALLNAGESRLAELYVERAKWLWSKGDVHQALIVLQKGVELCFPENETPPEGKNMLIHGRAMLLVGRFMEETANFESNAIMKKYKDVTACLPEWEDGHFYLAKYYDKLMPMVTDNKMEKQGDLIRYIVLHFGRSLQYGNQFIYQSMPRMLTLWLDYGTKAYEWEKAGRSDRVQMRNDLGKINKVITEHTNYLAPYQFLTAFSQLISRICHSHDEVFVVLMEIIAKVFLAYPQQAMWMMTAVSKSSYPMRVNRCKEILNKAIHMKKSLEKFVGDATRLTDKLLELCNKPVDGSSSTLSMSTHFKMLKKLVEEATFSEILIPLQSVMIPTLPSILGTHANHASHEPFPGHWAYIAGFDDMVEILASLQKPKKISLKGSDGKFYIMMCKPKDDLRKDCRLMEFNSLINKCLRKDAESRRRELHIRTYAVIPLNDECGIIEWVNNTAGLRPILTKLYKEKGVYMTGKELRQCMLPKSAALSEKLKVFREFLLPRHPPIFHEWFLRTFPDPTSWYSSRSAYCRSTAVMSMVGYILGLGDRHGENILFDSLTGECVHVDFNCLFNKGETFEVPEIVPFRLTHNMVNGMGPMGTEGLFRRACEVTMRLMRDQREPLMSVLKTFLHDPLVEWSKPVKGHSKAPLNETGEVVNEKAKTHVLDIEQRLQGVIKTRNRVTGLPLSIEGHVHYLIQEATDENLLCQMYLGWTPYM
# T1 sequence (Q8WXE1 whole entry partner): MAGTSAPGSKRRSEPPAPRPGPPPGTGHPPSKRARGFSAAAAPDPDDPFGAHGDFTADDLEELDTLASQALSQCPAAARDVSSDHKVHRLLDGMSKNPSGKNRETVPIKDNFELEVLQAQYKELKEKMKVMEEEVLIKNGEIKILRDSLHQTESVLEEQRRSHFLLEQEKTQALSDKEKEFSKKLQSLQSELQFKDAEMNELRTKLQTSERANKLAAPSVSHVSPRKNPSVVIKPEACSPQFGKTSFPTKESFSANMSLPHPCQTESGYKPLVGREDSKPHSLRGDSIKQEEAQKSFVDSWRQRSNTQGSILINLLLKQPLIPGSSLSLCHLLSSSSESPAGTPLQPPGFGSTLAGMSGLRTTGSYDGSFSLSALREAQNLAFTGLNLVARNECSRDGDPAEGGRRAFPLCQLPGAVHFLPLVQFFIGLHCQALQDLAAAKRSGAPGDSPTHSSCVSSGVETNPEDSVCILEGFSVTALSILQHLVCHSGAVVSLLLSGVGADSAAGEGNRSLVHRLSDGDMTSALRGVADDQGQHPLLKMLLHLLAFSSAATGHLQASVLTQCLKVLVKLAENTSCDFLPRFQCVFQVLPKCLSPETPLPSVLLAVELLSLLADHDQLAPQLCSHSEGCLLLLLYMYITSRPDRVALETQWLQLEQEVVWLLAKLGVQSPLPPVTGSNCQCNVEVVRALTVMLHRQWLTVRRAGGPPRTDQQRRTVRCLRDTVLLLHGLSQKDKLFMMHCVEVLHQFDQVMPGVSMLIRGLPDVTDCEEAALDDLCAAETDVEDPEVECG
# Method: Compounds were screened for their ability to inhibit intracellular ATR using an immunofluorescence microscopy assay to detect phosphorylation of the ATR substrate histone H2AX in hydroxyurea treated cells. HT29 cells were plated at 14,000 cells per well in 96-well black imaging plates (BD 353219) in McCoy's 5A media (Sigma M8403) supplemented with 10% foetal bovine serum (JRH Biosciences 12003), Penicillin/Streptomycin solution diluted 1:100 (Sigma P7539), and 2 mM L-glumtamine (Sigma G7513), and allowed to adhere overnight at 37° C. in 5% CO2. Compounds were then added to the cell media from a final concentration of 25 μM in 3-fold serial dilutions and the cells were incubated at 37° C. in 5% CO2. After 15 min, hydroxyurea (Sigma H8627) was added to a final concentration of 2 mM.
# After 45 min of treatment with hydroxyurea, the cells were washed in PBS, fixed for 10 min in 4% formaldehyde diluted in PBS (Polysciences Inc 18814), washed in 0.2% Tween-20 in PBS (wash buffer), and permeabilised for 10 min in 0.5% Triton X-100 in PBS, all at room temperature. The cells were then washed once in wash buffer and blocked for 30 min at room temperature in 10% goat serum (Sigma G9023) diluted in wash buffer (block buffer). To detect H2AX phosphorylation levels, the cells were then incubated for 1 h at room temperature in primary antibody (mouse monoclonal anti-phosphorylated histone H2AX Ser139 antibody; Upstate 05-636) diluted 1:250 in block buffer. The cells were then washed five times in wash buffer before incubation for 1 h at room temperature in the dark in a mixture of secondary antibody (goat anti-mouse Alexa Fluor 488 conjugated antibody; Invitrogen A11029) and Hoechst stain (Invitrogen H3570); diluted 1:500 and 1:5000, respectively, in wash buffer. The cells were then washed five times in wash buffer and finally 100 ul PBS was added to each well before imaging.
# Cells were imaged for Alexa Fluor 488 and Hoechst intensity using the BD Pathway 855 Bioimager and Attovision software (BD Biosciences, Version 1.6/855) to quantify phosphorylated H2AX Ser139 and DNA staining, respectively. The percentage of phosphorylated H2AX-positive nuclei in a montage of 9 images at 20× magnification was then calculated for each well using BD Image Data Explorer software (BD Biosciences Version 2.2.15). Phosphorylated H2AX-positive nuclei were defined as Hoechst-positive regions of interest containing Alexa Fluor 488 intensity at 1.75-fold the average Alexa Fluor 488 intensity in cells not treated with hydroxyurea. The percentage of H2AX positive nuclei was finally plotted against concentration for each compound and IC50s for intracellular ATR inhibition were determined using Prism software (GraphPad Prism version 3.0cx for Macintosh, GraphPad Software, San Diego Calif., USA).
# full-length ATR = biological target: T2, full-length ATR (Homo sapiens, UniProt Q13535); assay: ATR Inhibition Assay (radioactive-phosphate incorporation); assay type: biochemical; settings: Ki(app); 5 nM full-length ATR, 10 μM ATP, 800 μM target peptide, 25° C.
# T2 construct: in the presence of 5 nM full-length ATR
# T2 sequence (Q13535 whole entry): as the sequence (Q13535 whole entry) above
# How it was run: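 Buffer was 50 mM Tris/HCl pH 7.5, 10 mM MgCl2, 1 mM DTT, with 5 nM enzyme, 10 μM [γ-33P]ATP and 800 μM target peptide at 25 °C. Compound was pre-incubated 10 min before ATP start, and the reaction was stopped after 24 h. Phosphocellulose filter capture; Ki(app) came from non-linear regression of background-corrected initial rates.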
IC50 (intracellular ATR),Ki (full-length ATR),Compound
1000 to 5000 nM,< 100 nM,"CN(C)S(=O)(=O)N1CC=C(c2cnc(N)c(-c3nc4cccnc4[nH]3)n2)CC1 [Compound I-26, 4-(5-amino-6-(3H-imidazo[4,5-b]pyridin-2-yl)pyrazin-2-yl)-N,N-dimethyl-5,6-dihydropyridine-1(2H)-sulfonamide]"
5000 to 10000 nM,< 100 nM,"CCS(=O)(=O)N1CC=C(c2cnc(N)c(-c3nnc(-c4ccccc4)o3)n2)CC1 [Compound I-28, 5-(1-(ethylsulfonyl)-1,2,3,6-tetrahydropyridin-4-yl)-3-(5-phenyl-1,3,4-oxadiazol-2-yl)pyrazin-2-amine]"
,100 to 1000 nM,"Cn1cnc(S(=O)(=O)N2CCN(c3cnc(N)c(-c4nc5ccccc5[nH]4)n3)CC2)c1 [Compound I-91, 3-(1H-benzo[d]imidazol-2-yl)-5-(4-(1-methyl-1H-imidazol-4-ylsulfonyl)piperazin-1-yl)pyrazin-2-amine]"
,100 to 1000 nM,"CCCS(=O)(=O)N1CCN(c2cnc(N)c(-c3nc4ccccc4[nH]3)n2)CC1 [Compound I-95, 3-(1H-benzo[d]imidazol-2-yl)-5-(4-(propylsulfonyl)piperazin-1-yl)pyrazin-2-amine]"
,1000 to 10000 nM,"Cc1ccc2nc(-c3nc(N4CCN(c5ccccn5)CC4)cnc3N)[nH]c2c1 [Compound I-64, 3-(6-methyl-1H-benzo[d]imidazol-2-yl)-5-(4-(pyridin-2-yl)piperazin-1-yl)pyrazin-2-amine]"
,< 100 nM,"CCC(=O)N1CCN(c2cnc(N)c(-c3nnc(-c4ccc(CNC)cc4)o3)n2)CC1 [Compound I-327, 1-[4-[5-Amino-6-[5-[4-(methylaminomethyl)phenyl]-1,3,4-oxadiazol-2-yl]pyrazin-2-yl]piperazin-1-yl]propan-1-one]"
,1000 to 10000 nM,"Nc1ncc(N2CCNCC2)nc1-c1nc2ccccc2[nH]1 [Compound I-40, 3-(1H-benzo[d]imidazol-2-yl)-5-(piperazin-1-yl)pyrazin-2-amine]"
,100 to 1000 nM,"CN1CCN(C(=O)N2CC=C(c3cnc(N)c(-c4nc5ccccc5[nH]4)n3)CC2)CC1 [Compound I-161, (4-(5-amino-6-(1H-benzo[d]imidazol-2-yl)pyrazin-2-yl)-5,6-dihydropyridin-1(2H)-yl)(4-methylpiperazin-1-yl)methanone]"
,100 to 1000 nM,"CNCc1ccc(-c2nnc(-c3nc(N4CCC[C@H]4CO)cnc3N)o2)cc1 [Compound I-352, [(2S)-1-[5-Amino-6-[5-[4-(methylaminomethyl)phenyl]-1,3,4-oxadiazol-2-yl]pyrazin-2-yl]pyrrolidin-2-yl]methanol]"
,< 100 nM,"Nc1ncc(C2=CCN(C(=O)N3CCOCC3)CC2)nc1-c1nnc(-c2ccccc2)o1 [Compound I-217, (4-(5-amino-6-(5-phenyl-1,3,4-oxadiazol-2-yl)pyrazin-2-yl)-5,6-dihydropyridin-1(2H)-yl)(morpholino)methanone]"
,< 100 nM,"Nc1ncc(C2=CCN(S(=O)(=O)c3cccnc3)CC2)nc1-c1nc2ccccc2[nH]1 [Compound I-241, 3-(1H-benzo[d]imidazol-2-yl)-5-(1-(pyridin-3-ylsulfonyl)-1,2,3,6-tetrahydropyridin-4-yl)pyrazin-2-amine]"
,< 100 nM,"Nc1ncc(C2=CCN(C(=O)C3CCCC3)CC2)nc1-c1nnc(-c2ccccc2)o1 [Compound I-127, (4-(5-amino-6-(5-phenyl-1,3,4-oxadiazol-2-yl)pyrazin-2-yl)-5,6-dihydropyridin-1(2H)-yl)(cyclopentyl)methanone]"
,100 to 1000 nM,"Nc1ncc(N2CCN(S(=O)(=O)Cc3ccccc3)CC2)nc1-c1nnc(-c2ccccc2)o1 [Compound I-99, 5-(4-(benzylsulfonyl)piperazin-1-yl)-3-(5-phenyl-1,3,4-oxadiazol-2-yl)pyrazin-2-amine]"
,100 to 1000 nM,"Cc1ccc2nc(-c3nc(N4CCC(C(=O)c5ccccc5)CC4)cnc3N)[nH]c2c1 [Compound I-63, (1-(5-amino-6-(6-methyl-1H-benzo[d]imidazol-2-yl)pyrazin-2-yl)piperidin-4-yl)(phenyl)methanone]"
,1000 to 10000 nM,"CCS(=O)(=O)N1CCN(c2cnc(N)c(-c3cn4ccsc4n3)n2)CC1 [Compound I-62, 5-(4-(ethylsulfonyl)piperazin-1-yl)-3-(imidazo[2,1-b]thiazol-6-yl)pyrazin-2-amine]"
,100 to 1000 nM,"CNCc1ccc(-c2nnc(-c3nc(N4CCC5(C4)CN(S(=O)(=O)C(C)C)C5)cnc3N)o2)cc1 [Compound I-368, 5-(2-(Isopropylsulfonyl)-2,6-diazaspiro[3.4]octan-6-yl)-3-(5-(4-((methylamino)methyl)phenyl)-1,3,4-oxadiazol-2-yl)pyrazin-2-amine]"
,1000 to 10000 nM,"Nc1ncc(N2CCN(C(=O)Cc3ccccc3)CC2)nc1C(=O)Nc1ccccn1 [Compound I-141, 3-amino-6-(4-(2-phenylethanoyl)piperazin-1-yl)-N-(pyridin-2-yl)pyrazine-2-carboxamide]"
,100 to 1000 nM,"CCN1CCN(c2cnc(N)c(-c3nnc(-c4ccc(CNC)cc4)o3)n2)CC1 [Compound I-322, 5-(4-Ethylpiperazin-1-yl)-3-[5-[4-(methylaminomethyl)phenyl]-1,3,4-oxadiazol-2-yl]pyrazin-2-amine]"
,100 to 1000 nM,"CNCc1ccc(-c2nnc(-c3nc(N4CCC[C@@H]4CO)cnc3N)o2)cc1 [Compound I-356, [(2R)-1-[5-Amino-6-[5-[4-(methylaminomethyl)phenyl]-1,3,4-oxadiazol-2-yl]pyrazin-2-yl]pyrrolidin-2-yl]methanol]"
,100 to 1000 nM,"Nc1ncc(C2=CCN(C(=O)C3CCOCC3)CC2)nc1-c1nc2ccccc2[nH]1 [Compound I-235, (4-(5-amino-6-(1H-benzo[d]imidazol-2-yl)pyrazin-2-yl)-5,6-dihydropyridin-1(2H)-yl)(tetrahydro-2H-pyran-4-yl)methanone]"
,100 to 1000 nM,"CCS(=O)(=O)N1CC=C(c2cnc(N)c(-c3nc4cc(C)c(C)cc4[nH]3)n2)CC1 [Compound I-154, 3-(5,6-dimethyl-1H-benzo[d]imidazol-2-yl)-5-(1-(ethylsulfonyl)-1,2,3,6-tetrahydropyridin-4-yl)pyrazin-2-amine]"
,< 100 nM,"CCC(=O)NC1CC=C(c2cnc(N)c(-c3nnc(-c4ccc(CNC)cc4)o3)n2)CC1 (centres unmarked) [Compound I-367, N-(4-(5-Amino-6-(5-(4-((methylamino)methyl)phenyl)-1,3,4-oxadiazol-2-yl)pyrazin-2-yl)cyclohex-3-enyl)propionamide]"
,1000 to 10000 nM,"CCNC(=O)[C@@H]1CCCN1c1cnc(N)c(-c2nnc(-c3ccc(CNC)cc3)o2)n1 [Compound I-348, (25)-1-[5-Amino-6-[5-[4-(methylaminomethyl)phenyl]-1,3,4-oxadiazol-2-yl]pyrazin-2-yl]-N-ethyl-pyrrolidine-2-carboxamide]"
,100 to 1000 nM,"CC#CCOC(=O)N1CC=C(c2cnc(N)c(-c3nc4ccccc4[nH]3)n2)CC1 [Compound I-254, but-2-ynyl 4-(5-amino-6-(1H-benzo[d]imidazol-2-yl)pyrazin-2-yl)-5,6-dihydropyridine-1(2H)-carboxylate]"
,100 to 1000 nM,"Nc1ncc(N2CCN(C(=O)c3ccccn3)CC2)nc1-c1nc2ccccc2[nH]1 [Compound I-176, (4-(5-amino-6-(1H-benzo[d]imidazol-2-yl)pyrazin-2-yl)piperazin-1-yl)(pyridin-2-yl)methanone]"
,100 to 1000 nM,"Cc1cccc(C)c1C(=O)N1CCN(c2cnc(N)c(C(=O)Nc3ccccn3)n2)CC1 [Compound I-262, 3-amino-6-(4-(2,6-dimethylphenylcarbonyl)piperazin-1-yl)-N-(pyridin-2-yl)pyrazine-2-carboxamide]"
,1000 to 10000 nM,"CCC(CC)C(=O)N1CCN(c2cnc(N)c(C(=O)Nc3ccccn3)n2)CC1 [Compound I-212, 3-amino-6-(4-(2-ethylbutanoyl)piperazin-1-yl)-N-(pyridin-2-yl)pyrazine-2-carboxamide]"
